Each structure is given as a SMILES string. Where two headings read alike, the source gives them in different places.

As usually defined, the IC50 is the midpoint of a concentration-inhibition curve.

For test [1], the system named is KYSE-520 cell (human esophageal squamous cell carcinoma cell). Put plainly: Inhibition of the proliferation activity of KYSE-520 cell (CellTiter-Glo). The class given is cell-based. To be noted: 120 h, KYSE-520 cell proliferation, 5 days. The procedure, abridged:
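KYSE-520 cells, 1500/well, adhered overnight, then exposed to compound in complete medium with 10% FBS for 5 days at 37° C, 5% CO2. Viability by CellTiter-Glo luminescence, blank-corrected against cell-free medium and normalised to vehicle. IC50 from four-parameter logistic fit.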
For orientation: ATP-based viability assays read luminescence as a measure of living cells.

For test [2], the target named is T1, CYP3A4 (Homo sapiens, UniProt P08684).
T1 construct: purchased Promega
Nature of the test: Biochemical assay for CYP enzyme inhibition, P450-Glo CYP3A4 Screening System. The class given is in vitro ADME. The procedure: (§1) Test Example 5: Biochemical Assay for CYP Enzyme (Cytochrome P450) Inhibition
P450-Glo™ CYP3A4 Screening System, (Promega).
(§2) BMG PHERAstar FS Luminescent.
(§3) The experiments were carried out separately according to the instructions of the kits. The steps were as follows:
3.3. Inhibition Against CYP3A4:
Test group: The test compounds at different concentrations were added into a microplate, and Luciferin-IPA ([…]), K3PO4 (100 mM), and CYP3A4 (2 nM) were added into each well, and pre-incubated at room temperature for 10 min. Thereafter, an NADPH regeneration system was added. The mixture was reacted at room temperature for 30 min. Finally, an equal volume of detection buffer was added and incubated at room temperature for 20 min, followed by chemiluminescence detection.
(§4) Negative control group: The experimental method for the negative control group was the same as that for the test group, except that the test compound was not added.
Blank control group: The experimental method for the blank control group was the same as that for the test group, except that the test compound was not added and that CYP3A4 was replaced with CYP3A4 Membrance (2 nM).
(§5) Percentage inhibition=(1−(the chemiluminescent signal value of the test compound group at a certain test concentration−the chemiluminescent signal value of the blank control group)/(the chemiluminescent signal value of the negative control group−the chemiluminescent signal value of the blank control group))×100%.
(§6) When the percentage inhibition was between 30% and 80%, a single value or a value range of the half maximal inhibitory concentration (IC50) of the compound against the CYP enzyme was estimated based on the following equation: IC50=X×(1−percentage inhibition)/percentage inhibition, wherein X was the test concentration of the compound.

Test [3] has as its target T2, CYP2D6 (Homo sapiens, UniProt P10635).
T2 construct: purchased Promega
Nature of the test: Biochemical assay for CYP enzyme inhibition, P450-Glo CYP2D6 Screening System. The class given is in vitro ADME. The procedure: as §1
P450-Glo™ CYP2D6 Screening System, (Promega);
as §2, §3
3.2. Inhibition Against CYP2D6:
Test group: The test compounds at different concentrations were added into a microplate, and Luciferin-ME EGE (3 μM), K3PO4 (100 mM), and CYP2D6 (5 nM) were added into each well, and pre-incubated at room temperature for 10 min. Thereafter, an NADPH regeneration system was added. The mixture was reacted at 37° C. for 30 min. Finally, an equal volume of detection buffer was added and incubated at room temperature for 20 min, followed by chemiluminescence detection.
as §4
Blank control group: The experimental method for the blank control group was the same as that for the test group, except that the test compound was not added and that CYP2D6 was replaced with CYP2D6 Membrance (5 nM).
as §5, §6

Test [4] concerns the target T3, hERG (Homo sapiens, UniProt Q12809).
T3 construct: purchased ThermoFisher
Nature of the test: Biochemical assay for hERG inhibition (Predictor hERG Fluorescence Polarization Assay Kit). The class given is binding. The procedure: Test Example 3: Biochemical Assay for hERG Inhibition
kit: Predictor™ hERG Fluorescence Polarization Assay Kit (ThermoFisher) containing:
Compound E4031 as a positive control;
tracer concentration: 1 nM;
incubation duration: 2 hours;
parameters for microplate reader: BMG PHERAstar FS fluorescence microplate reader.
Test group: The test compounds at different concentrations were added into a microplate containing hERG cell membrane, and the tracer with a high affinity for hERG was then added into each well. The microplate was incubated at 25° C. for 2 hours before detection of the change in fluorescence polarization value (mP) (excitation wavelength: 540 nm; emission wavelength: 590 nm) using a multi-mode microplate reader.
Positive control group: The experimental method for the positive control group was the same as that for the test group, except that the test compound was replaced with 30 μM Compound E4031.
Blank control group: The experimental method for the blank control group was the same as that for the test group, except that the test compound was replaced with the hERG buffer and that the hERG cell membrane was not added.
Based on the data ratios, the percentage inhibition (%) of the compounds of the present disclosure against hERG at different concentrations was calculated and the range of the half maximal inhibitory concentration (IC50) of the compounds was determined. Percentage inhibition (%)=(1−(mP of the test compound−mP of the positive control group)/(mP of the blank control group−mP of the positive control group))×100%.

[5] abbreviates: estimated from percentage inhibition, read-out: IC50 (μM) CYP3A4.
The mark [6] stands for this setting: estimated from percentage inhibition, read-out: IC50 (μM) CYP2D6.

T1 sequence (P08684 whole entry): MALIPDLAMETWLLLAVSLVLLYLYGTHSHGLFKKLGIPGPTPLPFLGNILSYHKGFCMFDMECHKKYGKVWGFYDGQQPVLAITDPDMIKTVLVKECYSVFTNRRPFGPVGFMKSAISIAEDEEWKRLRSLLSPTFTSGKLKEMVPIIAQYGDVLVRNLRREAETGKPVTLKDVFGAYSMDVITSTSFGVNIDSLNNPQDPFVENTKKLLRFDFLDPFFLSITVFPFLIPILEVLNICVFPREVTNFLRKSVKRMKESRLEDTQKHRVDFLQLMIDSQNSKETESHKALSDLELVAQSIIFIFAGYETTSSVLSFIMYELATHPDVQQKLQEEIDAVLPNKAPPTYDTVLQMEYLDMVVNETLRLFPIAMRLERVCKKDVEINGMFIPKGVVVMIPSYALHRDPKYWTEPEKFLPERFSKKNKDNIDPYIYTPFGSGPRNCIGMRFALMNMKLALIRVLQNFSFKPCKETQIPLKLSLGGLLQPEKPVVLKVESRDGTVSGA
T2 sequence (P10635 whole entry): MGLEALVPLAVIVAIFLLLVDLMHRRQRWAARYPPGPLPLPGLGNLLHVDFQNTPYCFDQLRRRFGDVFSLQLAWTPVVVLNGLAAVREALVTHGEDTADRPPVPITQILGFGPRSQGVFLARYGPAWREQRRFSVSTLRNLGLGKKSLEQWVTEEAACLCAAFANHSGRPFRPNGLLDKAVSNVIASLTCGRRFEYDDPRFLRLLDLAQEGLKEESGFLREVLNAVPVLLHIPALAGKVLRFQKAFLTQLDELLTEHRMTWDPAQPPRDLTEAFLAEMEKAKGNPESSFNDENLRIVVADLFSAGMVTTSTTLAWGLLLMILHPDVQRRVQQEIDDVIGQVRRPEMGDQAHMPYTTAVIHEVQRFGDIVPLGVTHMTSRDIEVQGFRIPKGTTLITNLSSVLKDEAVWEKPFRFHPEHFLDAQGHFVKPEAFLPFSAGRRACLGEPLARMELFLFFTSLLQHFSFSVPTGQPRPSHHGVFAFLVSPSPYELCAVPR
T3 sequence (Q12809 whole entry): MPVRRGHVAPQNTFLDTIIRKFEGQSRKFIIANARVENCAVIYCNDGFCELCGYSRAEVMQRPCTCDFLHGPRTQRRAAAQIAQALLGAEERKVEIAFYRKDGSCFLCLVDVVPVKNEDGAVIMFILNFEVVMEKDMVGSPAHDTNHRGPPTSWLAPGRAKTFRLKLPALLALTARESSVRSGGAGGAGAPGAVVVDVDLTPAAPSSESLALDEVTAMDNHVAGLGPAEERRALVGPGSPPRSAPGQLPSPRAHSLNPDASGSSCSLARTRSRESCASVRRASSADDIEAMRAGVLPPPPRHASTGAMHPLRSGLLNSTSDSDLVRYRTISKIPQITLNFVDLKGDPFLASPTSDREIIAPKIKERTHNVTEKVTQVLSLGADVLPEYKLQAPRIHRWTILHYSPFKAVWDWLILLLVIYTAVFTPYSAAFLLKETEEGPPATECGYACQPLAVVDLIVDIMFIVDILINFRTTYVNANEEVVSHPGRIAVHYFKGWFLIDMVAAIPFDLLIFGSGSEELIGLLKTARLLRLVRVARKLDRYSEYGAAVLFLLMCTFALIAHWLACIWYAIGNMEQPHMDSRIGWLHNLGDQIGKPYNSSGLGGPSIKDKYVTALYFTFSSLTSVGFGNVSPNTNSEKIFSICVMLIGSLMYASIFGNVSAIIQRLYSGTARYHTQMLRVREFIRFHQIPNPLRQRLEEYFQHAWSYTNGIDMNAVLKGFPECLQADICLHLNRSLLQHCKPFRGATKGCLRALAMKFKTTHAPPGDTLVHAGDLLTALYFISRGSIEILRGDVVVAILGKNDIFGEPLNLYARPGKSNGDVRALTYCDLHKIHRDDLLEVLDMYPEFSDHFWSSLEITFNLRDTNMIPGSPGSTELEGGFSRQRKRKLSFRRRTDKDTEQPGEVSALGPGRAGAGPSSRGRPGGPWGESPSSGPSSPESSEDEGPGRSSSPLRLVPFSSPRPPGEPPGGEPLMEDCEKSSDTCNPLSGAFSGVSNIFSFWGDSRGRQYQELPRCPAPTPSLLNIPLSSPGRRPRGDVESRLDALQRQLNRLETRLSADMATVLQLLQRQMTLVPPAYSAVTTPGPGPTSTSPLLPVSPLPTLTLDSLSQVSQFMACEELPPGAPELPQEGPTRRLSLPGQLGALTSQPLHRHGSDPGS

Consider `C[C@@H]1OCC2(CCN(c3ncc(Sc4ccnc(N5CC(CS(C)(=O)=O)C5)c4Cl)nc3CO)CC2)[C@@H]1N` [Example 26, (3-((3S,4S)-4-amino-3-methyl-2-oxa-8-azaspiro[4.5]decan-8-yl)-6-(3-chloro-2-(3-(methylsulfonylmethyl)azetidin-1-yl)pyridin-4-ylthio)pyrazin-2-yl)methanol], for which the IC50 is 0.03 µM in test [1], greater than 10 µM in test [2], greater than 10 µM in test [3] and greater than 10 µM in test [4].
`C[C@@H]1OCC2(CCN(c3ncc(Sc4ccnc(N5CC(C)(CO)C5)c4Cl)nc3CO)CC2)[C@@H]1N` [Example 27, (3-((3S,4S)-4-amino-3-methyl-2-oxa-8-azaspiro[4.5]decan-8-yl)-6-(3-chloro-2-(3-(hydroxymethyl)-3-methylazetidin-1-yl)pyridin-4-ylthio)pyrazin-2-yl)methanol]: the IC50 is 0.06 µM in test [1], greater than 10 µM in test [2], greater than 10 µM in test [3] and greater than 10 µM in test [4].
Turning to `C[C@@H]1OCC2(CCN(c3ncc(Sc4ccnc(N5CC(C#N)(CO)C5)c4Cl)nc3CO)CC2)[C@@H]1N` [Example 47, 1-(4-(5-((3S,4S)-4-amino-3-methyl-2-oxa-8-azaspiro[4.5]decan-8-yl)-6-(hydroxymethyl)pyrazin-2-ylthio)-3-chloropyridin-2-yl)-3-(hydroxymethyl)azetidine-3-carbonitrile], the IC50 is 0.04 µM in test [1], greater than 10 µM in test [2], greater than 10 µM in test [3] and greater than 10 µM in test [4].
Regarding `CC(C)(O)C1CN(c2nccc(Sc3ncc(N4CCC5(CC4)Cc4ncccc4[C@H]5N)nc3N)c2Cl)C1` [Example 46, (S)-2-(1-(4-(3-amino-5-(5-amino-5,7-dihydrospiro[cyclopenta[b]pyridine-6,4′-piperidin]-1′-yl)pyrazin-2-ylthio)-3-chloropyridin-2-yl)azetidin-3-yl)propan-2-ol], the IC50 was 0.07 µM in test [1]; greater than 10 µM in test [2] (setting [5]); greater than 10 µM in test [3] (setting [6]); greater than 10 µM in test [4] (competition with affinity tracer 1 nM, 2 hours, read-out: IC50 (μM), hERG inhibition assay).
Consider `C[C@@H]1OCC2(CCN(c3ncc(Sc4ccnc(N5CC(C)(CS(C)(=O)=O)C5)c4Cl)nc3CO)CC2)[C@@H]1N` [Example 29, (3-((3S,4S)-4-amino-3-methyl-2-oxa-8-azaspiro[4.5]decan-8-yl)-6-(3-chloro-2-(3-methyl-3-(methylsulfonylmethyl)azetidin-1-yl)pyridin-4-ylthio)pyrazin-2-yl)methanol], for which the IC50 in test [1] was 0.04 µM; in test [2], greater than 10 µM; in test [3] it was greater than 10 µM; in test [4], greater than 10 µM.
Take `C[C@@H]1OCC2(CCN(c3ncc(Sc4ccnc(N5CC(C(C)(C)O)C5)c4Cl)nc3CO)CC2)[C@@H]1N` [Example 12, 2-(1-(4-(5-((3S,4S)-4-amino-3-methyl-2-oxa-8-azaspiro[4.5]decan-8-yl)-6-(hydroxymethyl)pyrazin-2-ylthio)-3-chloropyridin-2-yl)azetidin-3-yl)propan-2-ol]: the IC50 in test [1] was 0.04 µM; in test [2], greater than 10 µM; in test [3] it was greater than 10 µM; in test [4] it was greater than 10 µM.
In the case of `C[C@@H]1OCC2(CCN(c3ncc(Sc4ccnc(N5CC(CO)(CF)C5)c4Cl)nc3CO)CC2)[C@@H]1N` [Example 42, (3-((3S,4S)-4-amino-3-methyl-2-oxa-8-azaspiro[4.5]decan-8-yl)-6-(3-chloro-2-(3-(fluoromethyl)-3-(hydroxymethyl)azetidin-1-yl)pyridin-4-ylthio)pyrazin-2-yl)methanol], the IC50 was 0.1 µM in test [1], greater than 10 µM in test [2] (setting [5]), greater than 10 µM in test [3] (setting [6]) and greater than 10 µM in test [4].
In the case of `C[C@@H]1OCC2(CCN(c3ncc(Sc4ccnc(N5CCCC5CO)c4Cl)nc3CO)CC2)[C@@H]1N` (some centres unmarked) [Example 2], the IC50 in test [1] was 0.1 µM; in test [2] (setting [5]), greater than 10 µM; in test [3] (setting [6]) it was greater than 10 µM; in test [4], greater than 10 µM.
